Experimental data taken from PMC6123691, “Structural basis for promotion of duodenal iron absorption by enteric ferric reductase with ascorbate” (Communications Biology, 2018).

T1: duodenal cytochrome b (Dcytb) (Homo sapiens, UniProt Q53TN4)
T1 construct: gene CYBRD1; full-length Dcytb (residues 1–286); atomic model residues 6–230
T1 sequence (Q53TN4 1-286): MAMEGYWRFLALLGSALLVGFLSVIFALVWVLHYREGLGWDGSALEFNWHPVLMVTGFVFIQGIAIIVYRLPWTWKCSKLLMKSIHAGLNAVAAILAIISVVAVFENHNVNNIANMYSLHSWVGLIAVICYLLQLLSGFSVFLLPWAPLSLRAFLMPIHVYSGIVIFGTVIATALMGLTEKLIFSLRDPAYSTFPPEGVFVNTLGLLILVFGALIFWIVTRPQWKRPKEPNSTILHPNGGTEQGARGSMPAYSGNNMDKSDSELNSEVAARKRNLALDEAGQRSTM

B1: human duodenal cytochrome b (Dcytb) (enzyme, UniProt Q53TN4 1-286, looked up)
chain: T1 sequence (Q53TN4 1-286)
notes: human duodenal cytochrome b (Dcytb), member of the cytochrome b561 family, full-length, residues 1-286; codon-optimized gene; the atomic model includes only residues 6-230; A thrombin cleavage site stood between the protein and the C-terminal hexa-His tag (pET-21b(+)); after cleavage some residues of the site may remain at the C-terminus; Integral membrane protein, solubilised in DDM and …

Tests used:
[1] = molecular target: T1, duodenal cytochrome b (Dcytb); test: X-ray crystal structure ([…] Å, soaked with […] sodium ascorbate and ZnSO4); stopped-flow heme reduction; type: binding
[2] = molecular target: the molecule itself; test: crystal structure; lipidic cubic phase (monoolein) crystals, space group C2; substrate-free form at 2.6 Å and Zn2+/ascorbate-soaked form at 2.8 Å; the dimer is formed by crystallographic twofold symmetry

Row | Molecule | X-ray crystal structure (2.8 Å, soaked with 1 M sodium ascorbate and ZnSO4); sto [1] | stoichiometry N [2]
1 | O=C1O[C@H]([C@@H](O)CO)C(O)=C1O [Asc, ascorbate] | The electron density from one ascorbate molecule was observed on the cytoplasmic surface of Dcytb in proximity to the heme | –
2 | B1 | – | 2
